Experiment [1] deals with T1, full length human PDE4B2 short isoform (Homo sapiens, UniProt Q07343).
T1 construct: the full length human PDE4B2 short isoform; made in house; cytosol fraction of the lysate
Put plainly: PDE4 radio-assay, PDE4B2 short form (Experiment 1). It is filed as biochemical. Conditions: method of Experiment 1; FIG. 4. The method, then: (§1) One suitable method of detecting whether or not a compound is capable of serving as an activator of a PDE4 long form is using a two-step radio-assay procedure described in Experiment 1. In summary, the method involves incubating a PDE4 long form with a test small molecule activator, together with [^3H]-labelled cAMP to assess alterations in the breakdown of cAMP to the 5′-adenosine monophosphate (5′-AMP) product. A sample of the reaction mixture from such an incubation is subsequently treated with snake venom 5′-nucleotidase to allow conversion of the nucleotide [^3H]-labelled 5′-AMP to the uncharged nucleoside [^3H]-labelled adenosine, which can be separated and quantified to assess PDE4 activity and the effect of the test compound (Thompson, W. J. and Appleman, M. M. Biochemistry 10: 311-316, 1971, with some modifications as described in: Marchmont, R. J. and Houslay, M. D. Biochem J. 187: 381-92, 1980).
(§2) HEK 293 cells were transfected with pDEST™ PDE4 expression vectors using Lipofectamine LTX/Plus reagent (Invitrogen) as outlined by the manufacturer and clonal isolates expanded to obtain cell lines that stably expressed the full-length human PDE4D5, PDE4A4 and PDE4B1 long isoforms and the full length human PDE4B2 short isoform. These were called the HEK-PDE4D5, HEK-PDE4A4, HEK-PDE4B1 and HEK-PDE4B2 cell lines, respectively.
(§3) HEK-PDE4D5 cells were seeded out in 100 mm plates and incubated at 37° C. in an atmosphere of 5% CO2, 95% air. Cell lysates were prepared using KHEM buffer [50 mM KCl, 10 mM EGTA, 50 mM HEPES (pH 7.2), 1.92 mM MgCl2].
(§4) To prepare the cell lysates, the 100 mm plates containing the cells were placed on ice and washed with ice-cold PBS (phosphate buffered saline, pH 7.4). KHEM buffer (500 μl) was added to the cells. Cells were then scraped off the plate and triturated using a needle (BD Microlance™ 0.8, 40 mm). The lysed cells were then centrifuged at 2000 rpm for 10 minutes to remove cell debris and the supernatant (cell lysate containing recombinant PDE4D5) was transferred to a fresh tube and kept on ice.
(§5) The cell lysate containing recombinant PDE4D5 was transferred into a centrifuge tube and placed into an ultracentrifuge (BECKMAN COULTER) and spun at high speed (100,000 g) for 30 minutes at 4° C. The cytosol fraction was then collected and its protein amount determined using a BCA protein assay.
PDE assays were performed using a final concentration of 10 mM Tris/5 mM MgCl2 and 1 μM [3H]-cAMP (Perkin Elmer) plus PDE4D5 cell lysate cytosol fraction, containing over-expressed PDE4D5, with and without test compound. Incubations were performed at 30° C. for 5 minutes. […] Tubes were vortexed thoroughly to mix and the recovered [3H]-adenosine was quantified by measuring counts over 1 minute in a scintillation counter.

The target in a further experiment is T2, full-length human PDE4D5 (Homo sapiens, UniProt Q08499).
T2 construct: stably expressed the full-length human PDE4D5, PDE4A4 and PDE4B1 long isoforms; made in house; cytosol fraction of the lysate
T2 sequence (Q08499 1-745 isoform Q08499-6): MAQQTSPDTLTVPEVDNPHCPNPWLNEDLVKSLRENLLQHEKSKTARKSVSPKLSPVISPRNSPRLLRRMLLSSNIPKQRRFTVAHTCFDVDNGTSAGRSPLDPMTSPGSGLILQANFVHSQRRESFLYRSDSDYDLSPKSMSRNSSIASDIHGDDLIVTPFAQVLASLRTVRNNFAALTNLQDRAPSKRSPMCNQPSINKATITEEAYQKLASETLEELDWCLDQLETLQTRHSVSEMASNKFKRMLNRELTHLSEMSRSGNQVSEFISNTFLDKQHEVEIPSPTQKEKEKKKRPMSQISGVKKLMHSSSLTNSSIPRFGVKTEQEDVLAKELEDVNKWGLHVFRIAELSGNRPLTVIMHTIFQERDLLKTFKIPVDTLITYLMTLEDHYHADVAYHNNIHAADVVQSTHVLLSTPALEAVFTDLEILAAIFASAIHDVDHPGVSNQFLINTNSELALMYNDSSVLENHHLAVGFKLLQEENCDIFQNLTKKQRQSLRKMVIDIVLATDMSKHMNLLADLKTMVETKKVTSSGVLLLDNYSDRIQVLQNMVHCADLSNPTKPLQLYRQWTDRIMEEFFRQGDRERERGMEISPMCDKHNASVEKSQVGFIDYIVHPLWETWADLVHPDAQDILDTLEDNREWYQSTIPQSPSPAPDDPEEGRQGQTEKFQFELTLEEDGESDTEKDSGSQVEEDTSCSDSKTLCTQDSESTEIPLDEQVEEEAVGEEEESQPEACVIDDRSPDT
The experiment in a line: PDE4 radio-assay, PDE4D5 long form activation (Experiment 1). It is filed as biochemical. The following applies: n ≥ 2, read-out: PDE4D5 activity (mean % increase in counts over basal activity without added compound); for activation at 1 µM: 1 μM compound; for activation at 3 µM: 3 μM compound; for activation at 10 µM: 10 μM compound; for activation at 30 µM: 30 μM compound; for activation at 50 µM: 50 μM compound. As for the experimental part: as §1, §2, §3, §4, §5
PDE assays were performed using a final concentration of 10 mM Tris/5 mM MgCl2 and 1 μM [3H]-cAMP (Perkin Elmer) plus PDE4D5 cell lysate cytosol fraction, containing over-expressed PDE4D5, with and without test compound. Incubations were performed at 30° C. for 5 minutes. The samples were then placed in a boiling water bath for 2 minutes to denature the PDE enzyme, and returned to ice. Samples were allowed to cool for 1.0 min after which snake venom 5′-nucleotidase (25 μl, 1 mg/ml; Sigma) was added. The tubes were vortexed and incubated in a water bath at 30° C. for 10 minutes, to attain conversion of [3H]-5′-AMP to [3H]-adenosine, and then placed on ice. Dowex ion exchange resin (Sigma) prepared as a 1:1 Dowex:water stock was thoroughly re-suspended and diluted 2:1 with ethanol. The resulting Dowex suspension (0.4 ml) was added to each tube. Tubes were vortexed to mix and then incubated on ice for at least 15 minutes before a final vortex. The Dowex resin was pelleted by centrifugation at 13,000 g at 4° C. for 3 minutes and 150 μl of the supernatant was removed to an Eppendorf tube containing 1 ml of ScintiSafe3 scintillation fluid (Fisher). Tubes were vortexed thoroughly to mix and the recovered [3H]-adenosine was quantified by measuring counts over 1 minute in a scintillation counter.

Another experiment has as its system MDCK cells. The experiment in a line: Reduction of intracellular cAMP levels in forskolin stimulated MDCK cells (Experiment 2). In kind it is cell-based, canine. Conditions: 10 μM compound for 10 min prior to forskolin (10 μM) for 2 min; FIG. 6. The method, then: HEK 293 and MDCK cells (Public Health England, Cell Culture Collections) were maintained in DMEM supplemented with 10% (v/v) fetal bovine serum (Seralab), 2 mM L-glutamine, 1,000 U penicillin and 1,000 μg streptomycin (Life Technologies); termed complete media. Clonal HEK 293 cell lines were maintained in complete media supplemented with 0.6 mg/mL G418 (Enzo Life Sciences).
HEK 293 or MDCK cells were seeded at 100,000 cells per well, and left to adhere overnight. The cells were then treated with the compound indicated (10 μM) for 10 minutes, prior to stimulation with forskolin (10 μM, Sigma) for 2 minutes. Media was aspirated, and hydrochloric acid (0.1M) was added to lyse the cells. The cAMP assay (Enzo Life Sciences) was performed according to the manufacturers instructions.

T1 sequence (Q07343 1-564 isoform Q07343-2): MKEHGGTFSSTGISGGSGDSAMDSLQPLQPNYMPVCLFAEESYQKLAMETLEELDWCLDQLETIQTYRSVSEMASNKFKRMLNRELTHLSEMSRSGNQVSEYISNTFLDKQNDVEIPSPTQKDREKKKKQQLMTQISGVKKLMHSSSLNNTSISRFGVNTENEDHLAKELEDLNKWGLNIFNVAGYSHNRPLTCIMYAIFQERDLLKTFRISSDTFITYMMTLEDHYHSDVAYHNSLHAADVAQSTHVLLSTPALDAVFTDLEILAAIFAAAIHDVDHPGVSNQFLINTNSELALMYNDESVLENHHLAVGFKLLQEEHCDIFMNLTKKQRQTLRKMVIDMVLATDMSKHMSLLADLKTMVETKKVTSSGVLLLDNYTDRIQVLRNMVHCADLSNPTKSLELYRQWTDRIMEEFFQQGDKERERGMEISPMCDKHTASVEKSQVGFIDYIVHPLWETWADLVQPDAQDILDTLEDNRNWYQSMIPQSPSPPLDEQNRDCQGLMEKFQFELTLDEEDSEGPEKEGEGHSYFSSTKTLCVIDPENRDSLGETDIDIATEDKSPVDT

As to `CCc1nc(-c2ccc(Cl)c(F)c2)nn1CC(=O)NCc1ccc(OC)c(OC)c1` [Example L, N-(3,4-Dimethoxybenzyl)-2-[3-(4-chloro-3-fluorophenyl)-5-ethyl-1H-1,2,4-triazol-1-yl]acetamide], the “activation of PDE4B2, a short form of PDE4 (in words)” value (“activation of PDE4B2” for short) in experiment [1] was “lack of activation”. At full-length human PDE4D5, the activation at 1 µM turned out to be 26%, the activation at 3 µM is 42.4%, the activation at 10 µM came out at 79.8% and the activation at 30 µM stood at 214%. At full-length human PDE4D5, the activation at 50 µM stood at 251%.

As to `CCc1nc(-c2ccc(Cl)c(F)c2)nn1CC(=O)NCc1cccc(Cl)c1` [Example E, N-(3-Chlorobenzyl)-2-[3-(4-chloro-3-fluorophenyl)-5-ethyl-1H-1,2,4-triazol-1-yl]acetamide], the activation at 50 µM at full-length human PDE4D5 turned out to be 71.1%.

On to `CCc1nc(-c2ccc(Cl)c(F)c2)nn1CC(=O)NCc1cccc(OC(F)(F)F)c1` [Example I, N-[3-(Trifluoromethoxy)benzyl]-2-[3-(4-chloro-3-fluorophenyl)-5-ethyl-1H-1,2,4-triazol-1-yl]acetamide], for which the activation at 50 µM at full-length human PDE4D5 was determined as 92.1%.

Regarding `CCc1nc(-c2ccc(Cl)c(F)c2)nn1CC(=O)NCc1ccc(F)cc1` [Example K, N-(4-Fluorobenzyl)-2-[3-(4-chloro-3-fluorophenyl)-5-ethyl-1H-1,2,4-triazol-1-yl]acetamide], the activation at 50 µM at full-length human PDE4D5 came to 80.5%.

Turning to `COCc1nc(-c2ccc(OC(F)(F)F)cc2)nn1CC(=O)NCc1cccc(F)c1` [Example D, N-(3-Fluorobenzyl)-2-{3-[4-(trifluoromethoxy)phenyl]-5-methoxymethyl-1H-1,2,4-triazol-1-yl}acetamide], the “intracellular cAMP levels in MDCK cells (in words)” value in the experiment on MDCK cells is “reduction in intracellular cAMP levels”. For the same compound, the “activation of PDE4B2” value in experiment [1] is “lack of activation”. On full-length human PDE4D5, the activation at 1 µM amounted to 52.6%, the activation at 3 µM was determined as 30.6%, the activation at 10 µM is 51.6% and the activation at 30 µM amounted to 126%. Further, the activation at 50 µM at full-length human PDE4D5 worked out at 196%.

As for `CCc1nc(-c2ccc(Cl)c(F)c2)nn1CC(=O)NCc1ccccc1F` [Example J, N-(2-Fluorobenzyl)-2-[3-(4-chloro-3-fluorophenyl)-5-ethyl-1H-1,2,4-triazol-1-yl]acetamide], at full-length human PDE4D5, the activation at 50 µM was 82.2%.

Turning to `Cc1nc(-c2ccc(Cl)cc2)nn1CC(=O)NCc1ccccc1` [Example C, N-Benzyl-2-[3-(4-chlorophenyl)-5-methyl-1H-1,2,4-triazol-1-yl]acetamide], the “intracellular cAMP levels in MDCK cells (in words)” value with MDCK cells was “reduction in intracellular cAMP levels”. Further, at full-length human PDE4D5, the activation at 50 µM came out at 119%.

For `COCc1nc(-c2ccc(Cl)cc2)nn1CC(=O)NCc1ccccc1` [Example B, N-Benzyl-2-[3-(4-chlorophenyl)-5-methoxymethyl-1H-1,2,4-triazol-1-yl]acetamide], the “activation of PDE4B2” value in experiment [1] is recorded as “lack of activation”. In addition, on full-length human PDE4D5, the activation at 1 µM is 7.2%, the activation at 3 µM stood at 0.4%, the activation at 10 µM turned out to be 21.9% and the activation at 30 µM was determined as 64.6%. For the same compound, the activation at 50 µM at full-length human PDE4D5 worked out at 114%.

Consider `CCc1nc(-c2ccc(Cl)c(F)c2)nn1CC(=O)NCc1cccc(OC)c1` [Example H, N-(3-Methoxybenzyl)-2-[3-(4-chloro-3-fluorophenyl)-5-ethyl-1H-1,2,4-triazol-1-yl]acetamide], for which the activation at 50 µM on full-length human PDE4D5 was found to be 136%.

As to `CCc1nc(-c2ccc(Cl)c(F)c2)nn1CC(=O)NCc1cccc(C#N)c1` [Example F, N-(3-Cyanobenzyl)-2-[3-(4-chloro-3-fluorophenyl)-5-ethyl-1H-1,2,4-triazol-1-yl]acetamide], the activation at 50 µM at full-length human PDE4D5 came to 107%.

`CCc1nc(-c2ccc(Cl)c(F)c2)nn1CC(=O)NCc1cccc(C(F)(F)F)c1` [Example G, N-[3-(Trifluoromethyl)benzyl]-2-[3-(4-chloro-3-fluorophenyl)-5-ethyl-1H-1,2,4-triazol-1-yl]acetamide]: on full-length human PDE4D5, the activation at 50 µM was found to be 171%.

These data come from patent US10793531B2, “Triazole derivatives and their use as PDE4 activators” (MIRONID LIMITED, priority 2015, dated 2020).
